From patent US10308649B2, “Compounds and methods to suppress autoimmune response” (Oregon State University, priority 2014, dated 2019) come the findings set out here.

The test system of the series is CYP1A1. The experiment in a line: CYP1A1 mRNA induction in Hepa-1 cells. As to conditions: 1 nM.

Method: The levels of CYP1A1 expression were determined by measuring CYP1A1 messenger ribonucleic acid (mRNA) levels.

For `Clc1cc2c(cc1Cl)Oc1cc(Cl)c(Cl)cc1O2` [TCDD, 2,3,7,8-tetrachlorodibenzo-p-dioxin], the “CYP1A1 mRNA induction” value was “comparable level of induction”.
